19 molecules from PubChem BioAssay (NCI) can be followed below.

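96-well plates; 48 h exposure; 5 concentrations. Endpoints by linear interpolation between flanking doses. Not reached: highest tested concentration assigned. Here, GI50 denotes the concentration required for 50% inhibition of growth. TGI marks complete inhibition of growth.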 A value given as a limit tells only on which side of the number the result lay.

Assay in all cases: NCI-60 cell line screen, 48 h
Test [1] relates to SF-268 CNS.
Test [2] deals with UO-31 renal.
Test [3] relates to A498 renal.
The subject of test [4] is SR leukemia.
Test [5] has as its system NCI-H226 lung.
Test [6] has as its system HS 578T breast.
For test [7], the system named is RXF 393 renal.
Test [8] has as its system IGROV1 ovarian.
The test system of test [9] is HT29 colon.
For test [10], the system named is COLO 205 colon.

Turning to `CCCC[N+](CCCC)=c1ccc2nc3c(C)cc(N(CC)CC)cc3sc-2c1`, the GI50 in [1] was 0.339 µM; in test [2] it was 0.134 µM; in test [3] it was 0.236 µM; in [4] it was 0.0524 µM; in test [5], 0.265 µM; in test [6] it was 0.341 µM. Moreover, the GI50 in test [7] was 0.322 µM. Also, the TGI in test [1] was 1.78 µM; in [2], 0.804 µM; in test [3], 4.43 µM; in [4], 1.97 µM; in [5] it was 1.72 µM; in test [6], 2.29 µM. Further, in test [7], the TGI turned out to be 1.41 µM.
Turning to `O=C(Nc1ccc(CN2CCOCC2)cc1)c1[nH]ncc1Nc1ncnc2sccc12`, the GI50 in [1] was 0.595 µM; in [8] it was 0.578 µM; in test [3], 0.0363 µM; in test [4], 0.261 µM; in test [5] it was 0.163 µM; in [6], 0.14 µM. Moreover, the GI50 in [9] is 0.686 µM; in [7] it was 0.204 µM. Besides, the TGI stood at 5.6 µM in test [1]; 23.6 µM in test [8]; 0.461 µM in [3]; 0.989 µM in [4]; 0.63 µM in [5]; 4.81 µM in test [6]. The results for the TGI in test [9] and in test [7] were more than 100 µM and 0.639 µM, respectively.
Consider `O=C(Nc1cccc(Oc2nnc(Cl)c3ccccc23)c1)Nc1ccc(Cl)c(C(F)(F)F)c1`, for which the GI50 in [10] is 0.97 µM; in test [1], 0.793 µM; in test [2], 0.176 µM; in test [8], 1.04 µM; in [3], 0.275 µM; in [4] it was 0.321 µM. The GI50 in test [5] is 2.14 µM; in test [6], 1.72 µM; in test [9], 0.771 µM; in test [7], 1.17 µM. Further, the TGI is 3.9 µM in test [10]; 5.5 µM in test [1]; 4.19 µM in test [2]; 5.85 µM in test [8]; 1.7 µM in test [3]; 1.42 µM in test [4]. Besides, the TGI in [5] was determined as 7.2 µM; in test [6] it was 8.18 µM; in test [9], 3.14 µM; in test [7], 3.87 µM.
Take `O=[N+]([O-])c1ccc2c(N3CCC(CCCC4CCN(c5ncnc6cc([N+](=O)[O-])ccc56)CC4)CC3)ncnc2c1`: the GI50 was 11.5 µM in test [10]; more than 53.3 µM in test [1]; 27.3 µM in test [2]; more than 62.8 µM in test [8]; 1.44 µM in [3]; 2.5 µM in test [4]. In addition, the GI50 is 9.47 µM in test [5], more than 46.3 µM in [6], 21.7 µM in [9] and 30.8 µM in test [7]. Moreover, the TGI in test [10], in test [1], in test [2], in [8], in test [3] and in test [4] was more than 100 µM throughout. The TGI in [5] is more than 75.3 µM; in test [6], more than 100 µM; in test [9], more than 86.4 µM; in test [7], more than 100 µM.
`O=C1C2=Nc3ccccc3C(O)N2c2ccccc21` (stereo not given): the TGI in test [10] was more than 100 µM; in test [1], more than 100 µM; in test [2] it was more than 100 µM; in test [8], more than 100 µM; in test [3] it was 90.9 µM; in [4], more than 100 µM. The TGI is 77.3 µM in test [5], more than 100 µM in test [6] and more than 100 µM in [9].
Turning to `Cn1nnnc1N/N=C/c1ccccc1`, the TGI in test [10], in test [1], in test [2], in test [8], in test [4] and in test [5] was more than 10 µM each time. The TGI in test [6], in test [9] and in test [7] was more than 10 µM in each case.
Consider `Cc1ccc(Nc2n[nH]c(=S)s2)cc1`, for which the TGI in test [10], in [1], in [2], in test [3], in test [4] and in test [5] was more than 100 µM throughout. Besides, the TGI in test [6], in test [9] and in [7] was more than 100 µM throughout.
For the molecule `CCOC(=O)c1c2c(n(Cc3ccccc3)c1C)-c1ccccc1C(=O)C2=O`, the GI50 in test [10] was 15.6 µM; in [1], 19.5 µM; in [2] it was 16.3 µM; in test [8], 4.35 µM; in test [3] it was 24.6 µM; in [4], 3.39 µM. For the same molecule, the GI50 in [6] is 2.93 µM; in test [9], 11.8 µM; in test [7], 17.1 µM. The TGI in [10] was found to be 30.6 µM; in test [1], 47.2 µM; in [2] it was 31.6 µM; in test [8] it was 20.1 µM; in test [3] it was 60 µM; in test [4], 19 µM. The TGI in [6] was found to be 12.4 µM; in [9], 25.7 µM; in [7], 36.6 µM.
For `CNC(=O)c1ccc2cc(C3(O)CCn4cncc43)ccc2c1` (stereo not given), the GI50 in test [10], in test [1], in test [2], in test [8], in test [3] and in test [4] was more than 100 µM each time. For the same molecule, the GI50 in [5], in [6], in [9] and in test [7] was more than 100 µM throughout. Also, the TGI in [10], in test [1], in test [2], in test [8], in [3] and in [4] was more than 100 µM throughout. Besides, the TGI in [5], in [6], in test [9] and in [7] was more than 100 µM each time.
In the case of `CN(C)CCNC(=O)Cn1cc([N+](=O)[O-])c(=O)c2ccccc21`, the TGI in [10], in [1], in test [2], in test [8], in test [3] and in test [4] was more than 100 µM in each case. Further, the TGI in test [5], in [6] and in [9] was more than 100 µM in each case.
Consider `C=C(C)C1CC2(C)C(C)CC(OC(=O)/C(C)=C\C)CC2C(OC(=O)/C(C)=C\C)C1O` (stereo not given), for which the TGI in test [10] was 48.4 µM; in test [1] it was more than 100 µM; in test [2] it was more than 100 µM; in test [8] it was more than 100 µM; in test [3], more than 100 µM; in test [4] it was 45.1 µM. Further, the TGI in test [5], in test [6] and in [9] was more than 100 µM throughout.
As for `C=CC(C=O)C1(O)CCOC(=O)/C1=C\N` (stereo not given), the GI50 was more than 100 µM in test [10]; more than 100 µM in test [1]; more than 100 µM in test [2]; more than 100 µM in test [8]; 30.7 µM in [4]; more than 100 µM in [5]. Besides, the GI50 is 7.57 µM in test [6] and more than 100 µM in test [9]. For the same molecule, the TGI in test [10], in test [1], in test [2], in test [8], in [4] and in test [5] was more than 100 µM each time. Moreover, the TGI in test [6] and in test [9] was more than 100 µM each time.
As to `COc1cnc2c(c1)C(=O)c1c-2n(CCCN2CCC(O)CC2)c(=O)c2cc(F)ccc12`, the GI50 in test [1] was 0.272 µM; in test [2] it was 0.135 µM; in [8], 0.301 µM; in [3], 0.198 µM; in [4], 0.0806 µM; in test [5], 0.135 µM. For the same molecule, the values for the GI50 in test [6] and in test [7] were 1.67 µM and 0.217 µM, respectively. Also, the TGI in test [1] amounted to 8.32 µM; in test [2] it was 0.619 µM; in [8], 2.24 µM; in test [3], 1.23 µM; in test [4] it was 1.19 µM; in test [5] it was 0.307 µM. The TGI in test [6] amounted to 52.4 µM; in [7], 0.838 µM.
`COC(=O)c1ccc(NC(=O)Nc2ccc3oc(=O)c4ccccc4c3c2)cc1`: the GI50 in [10] was 32.5 µM; in test [1] it was 26.2 µM; in [2], 62.5 µM; in test [8], 37.8 µM; in test [4], 10.9 µM; in test [5] it was 64.1 µM. Further, the GI50 in test [9] was 28 µM. For the same molecule, the TGI in [10] is more than 100 µM; in test [1] it was 71.2 µM; in [2], more than 100 µM; in test [8], more than 100 µM; in [4], more than 100 µM; in test [5] it was more than 100 µM. In addition, the TGI in test [6] was 29.7 µM; in test [9], more than 100 µM.
Turning to `Cc1cccc(C(=O)/C=C/SC(=NC#N)SCc2ccccc2)c1`, the GI50 in [10] is 33.6 µM; in test [1] it was 28.8 µM; in [2], 30.9 µM; in test [8], 21.4 µM; in test [4] it was 3.99 µM; in [6] it was 27.9 µM. Moreover, the GI50 is 56.5 µM in test [9] and 22.7 µM in test [7]. The TGI was more than 100 µM in test [10]; more than 100 µM in test [1]; 89 µM in test [2]; 61.5 µM in test [8]; more than 100 µM in [4]; 94.8 µM in test [6]. Besides, the TGI was more than 100 µM in test [9] and 57.6 µM in test [7].
For the molecule `COc1cccc2c1-c1c(c3ccc([N+](=O)[O-])cc3c(=O)n1CCCCl)C2=O`, the GI50 in test [10] was more than 50 µM; in [1], 0.00993 µM; in test [2], 1.73 µM; in [3], 17.4 µM; in test [4], 0.202 µM; in test [5] it was 5.82 µM. Also, the GI50 was 25.2 µM in test [6] and more than 50 µM in test [9]. Moreover, the TGI in [10] is more than 50 µM; in [1], 3.96 µM; in test [2], more than 50 µM; in [3], more than 50 µM; in [4], more than 50 µM; in [5], 41.5 µM. Besides, the TGI in test [6] and in test [9] was more than 50 µM in each case.
For `Cc1cc(C2=NNC(=O)Cc3cc4c(cc32)OCCO4)cc(C)c1N`, the GI50 was 1.55 µM in [10]; 4.21 µM in [1]; 3.83 µM in [2]; 3 µM in test [8]; 3.31 µM in test [3]; 0.31 µM in test [4]. For the same molecule, the GI50 was 8.9 µM in [5], 3.05 µM in test [6] and 0.746 µM in test [9]. For the same molecule, the TGI in [10] is 11.2 µM; in test [1] it was more than 100 µM; in test [2], more than 100 µM; in test [8], more than 100 µM; in test [3] it was 99.4 µM; in test [4], more than 100 µM. In addition, the TGI in test [5], in test [6] and in test [9] was more than 100 µM throughout.
For `O=C(CSC(c1ccccc1)c1ccccc1)N/N=C/c1cccc(Cl)c1`, the GI50 in test [1] was 17.5 µM; in test [2] it was 11.7 µM; in test [8], 15.2 µM; in test [3], 14.9 µM; in [4], 17.7 µM; in test [5], 15.6 µM. In addition, the GI50 is 15.7 µM in test [6] and 13.9 µM in test [7]. The TGI was found to be 35 µM in [1]; 23.9 µM in test [2]; 28.8 µM in test [8]; 29 µM in [3]; 38.3 µM in test [4]; 31.3 µM in test [5]. Besides, the TGI in test [6] is 38.2 µM; in [7], 29.5 µM.
For the molecule `COC1CCC(O)C(/C=C/[N+](=O)[O-])C1` (stereo not given), the TGI came to 5.7 µM in test [10]; 15 µM in [1]; 3.55 µM in test [8]; 14.2 µM in [3]; 5.43 µM in test [4]; 5.96 µM in test [5]. The TGI in test [6] was 17.2 µM; in test [9], 11.2 µM; in [7], 2.91 µM.
